Source: ChEMBL document CHEMBL2029220, “Oxaphosphinanes: new therapeutic perspectives for glioblastoma” (J Med Chem, 2012)
The source made the active and inactive calls. The rule behind the calls is not given here.

What was measured:
C6 [1] = assay: Antiproliferative activity against rat C6 cells at 0.1 to 100 uM after 48 hrs by neutral red incorporation assay; type: functional, cell-based
A-431 [2] = assay: Antiproliferative activity against human A431 cells assessed as higher lowest toxic concentration after 48 hrs by MTT assay relative to control; type: functional
MDA-MB-231 [3] = assay: Antiproliferative activity against human MDA-MB-231 cells at 1 uM after 48 hrs by MTT assay relative to control; type: functional
SNB-75 = assay: Antiproliferative activity against human SNB75 cells at 10 uM after 24 hrs by SRB assay; type: functional, cell-based
MDA-MB-435 [4] = assay: Antiproliferative activity against human MDA-MB-435 cells at 10 uM after 48 hrs by MTT assay relative to control; type: functional
C6 [5] = assay: Antiproliferative activity against rat C6 cells assessed as higher lowest toxic concentration after 48 hrs by MTT assay relative to control; type: functional
Huh-7 [6] = assay: Antiproliferative activity against human HuH7 cells after 48 hrs by MTT assay; type: functional, cell-based; details: Huh-7, 48 h
C6 [7] = assay: Cytotoxicity against rat C6 cells assessed as decrease in cell index at 10 uM after 3 hrs; type: functional, cell-based
MDA-MB-231 [8] = assay: Antiproliferative activity against human MDA-MB-231 cells assessed as higher lowest toxic concentration after 48 hrs by MTT assay relative to control; type: functional
Caco-2 [9] = assay: Antiproliferative activity against human Caco2 cells after 48 hrs by MTT assay; type: functional, cell-based; details: Caco-2, 48 h
[10] = Cytotoxicity against mouse astrocytes assessed as decrease in cell viability at 1 to 100 uM after 48 hrs by neutral red incorporation assay; type: cell-based; details: astrocyte
[11] = Cytotoxicity against mouse astrocytes assessed as decrease in cell viability at 1 to 100 uM after 48 hrs by propidium iodide incorporation assay; type: cell-based; details: astrocyte
A-431 [12] = assay: Antiproliferative activity against human A431 cells after 48 hrs by MTT assay; type: functional, cell-based; details: A-431, 48 h
Huh-7 [13] = assay: Antiproliferative activity against human HuH7 cells at 1 uM after 48 hrs by MTT assay relative to control; type: functional
C6 [14] = assay: Antiproliferative activity against rat C6 cells at 1 uM after 48 hrs by MTT assay relative to control; type: functional
Caco-2 [15] = assay: Antiproliferative activity against human Caco2 cells assessed as higher lowest toxic concentration after 48 hrs by MTT assay relative to control; type: functional
B16-F10 [16] = assay: Antiproliferative activity against mouse B16F10 cells at 10 uM after 48 hrs by MTT assay relative to control; type: functional
MDA-MB-435 [17] = assay: Antiproliferative activity against human MDA-MB-435 cells at 1 uM after 48 hrs by MTT assay relative to control; type: functional
Huh-7 [18] = assay: Antiproliferative activity against human HuH7 cells assessed as higher lowest toxic concentration after 48 hrs by MTT assay relative to control; type: functional
C6 [19] = assay: Cytotoxicity against rat C6 cells assessed as decrease in cell index at 100 uM after 1 hr; type: functional, cell-based
Caco-2 [20] = assay: Antiproliferative activity against human Caco2 cells at 10 uM after 48 hrs by MTT assay relative to control; type: functional
MDA-MB-435 [21] = assay: Antiproliferative activity against human MDA-MB-435 cells after 48 hrs by MTT assay; type: functional, cell-based; details: MDA-MB-435, 48 h
C6 [22] = assay: Cytotoxicity against rat C6 cells at 10 uM after 1 hr by LDH Assay; type: functional, cell-based
C6 [23] = assay: Antiproliferative activity against rat C6 cells at 10 uM after 48 hrs by MTT assay relative to control; type: functional
B16-F10 [24] = assay: Antiproliferative activity against mouse B16F10 cells after 48 hrs by MTT assay; type: functional, cell-based; details: B16-F10, 48 h
Caco-2 [25] = assay: Antiproliferative activity against human Caco2 cells at 1 uM after 48 hrs by MTT assay relative to control; type: functional
C6 [26] = assay: Antiproliferative activity against rat C6 cells after 48 hrs by MTT assay; type: functional, cell-based; details: C6, 48 h
SF-295 = assay: Antiproliferative activity against human SF295 cells at 10 uM after 24 hrs by SRB assay; type: functional, cell-based
C6 [27] = assay: Cytotoxicity against rat C6 cells assessed as decrease in cell index at 25 uM after 3 hrs; type: functional, cell-based
A-431 [28] = assay: Antiproliferative activity against human A431 cells at 10 uM after 48 hrs by MTT assay relative to control; type: functional
Hs-578T = assay: Antiproliferative activity against human Hs 578T cells at 10 uM after 24 hrs by SRB assay; type: functional, cell-based
DU-145 [29] = assay: Antiproliferative activity against human DU145 cells after 48 hrs by MTT assay; type: functional, cell-based; details: DU-145, 48 h
[30] = Cytotoxicity against mouse astrocytes assessed as decrease in cell viability at 1 to 100 uM after 48 hrs by Hoechst 33342 staining; type: cell-based; details: astrocyte
DU-145 [31] = assay: Antiproliferative activity against human DU145 cells at 10 uM after 48 hrs by MTT assay relative to control; type: functional
C6 [32] = assay: Cytotoxicity against rat C6 cells assessed as decrease in cell index at 5 uM after 3 hrs; type: functional, cell-based
DU-145 [33] = assay: Antiproliferative activity against human DU145 cells at 1 uM after 48 hrs by MTT assay relative to control; type: functional, cell-based
DU-145 [34] = assay: Antiproliferative activity against human DU145 cells assessed as higher lowest toxic concentration after 48 hrs by MTT assay relative to control; type: functional
B16-F10 [35] = assay: Antiproliferative activity against mouse B16F10 cells at 1 uM after 48 hrs by MTT assay relative to control; type: functional
C6 [36] = assay: Cytotoxicity against rat C6 cells assessed as decrease in cell index at 50 uM after 2 hrs; type: functional, cell-based
MDA-MB-435 [37] = assay: Antiproliferative activity against human MDA-MB-435 cells assessed as higher lowest toxic concentration after 48 hrs by MTT assay relative to control; type: functional
B16-F10 [38] = assay: Antiproliferative activity against mouse B16F10 cells assessed as higher lowest toxic concentration after 48 hrs by MTT assay relative to control; type: functional
MDA-MB-231 [39] = assay: Antiproliferative activity against human MDA-MB-231 cells at 10 uM after 48 hrs by MTT assay relative to control; type: functional
Huh-7 [40] = assay: Antiproliferative activity against human HuH7 cells at 10 uM after 48 hrs by MTT assay relative to control; type: functional
A-431 [41] = assay: Antiproliferative activity against human A431 cells at 1 uM after 48 hrs by MTT assay relative to control; type: functional
C6 [42] = assay: Cytotoxicity against rat C6 cells assessed as decrease in cell index at 1 uM after 3 hrs; type: functional, cell-based
UO-31 = assay: Antiproliferative activity against human UO31 cells at 10 uM after 24 hrs by SRB assay; type: functional; details: UO-31, 24 h, read-out: GI
NCI-H522 = assay: Antiproliferative activity against human NCI-H522 cells at 10 uM after 24 hrs by SRB assay; type: functional, cell-based
SF-268 = assay: Antiproliferative activity against human SF268 cells at 10 uM after 24 hrs by SRB assay; type: functional, cell-based
U-251 = assay: Antiproliferative activity against human U251 cells at 10 uM after 24 hrs by SRB assay; type: functional, cell-based
SK-OV-3 = assay: Antiproliferative activity against human SKOV3 cells at 10 uM after 24 hrs by SRB assay; type: functional, cell-based
HOP-62 = assay: Antiproliferative activity against human HOP62 cells at 10 uM after 24 hrs by SRB assay; type: functional, cell-based
MDA-MB-468 = assay: Antiproliferative activity against human MDA-MB-468 cells at 10 uM after 24 hrs by SRB assay; type: functional, cell-based
LOX IMVI = assay: Antiproliferative activity against human LOXIMVI cells at 10 uM after 24 hrs by SRB assay; type: functional; details: read-out: GI

## O=[P@@]1(c2ccccc2)O[C@H](COCc2ccccc2)[C@@H](OCc2ccccc2)[C@H](OCc2ccccc2)[C@H]1O
C6 [1]
  Activity: Active
A-431 [2]
  Activity: 0.1 µM
MDA-MB-231 [3]
  Activity: 17%
SNB-75
  growth inhibition (GI): Active
MDA-MB-435 [4]
  Activity: 42%
C6 [5]
  Activity: 0.001 µM
Huh-7 [6]
  EC50: 30 µM
C6 [7]
  Activity: inactive
MDA-MB-231 [8]
  Activity: 0.1 µM
Caco-2 [9]
  EC50: 57 µM
[10]
  Activity: Non-toxic
[11]
  Activity: Non-toxic
A-431 [12]
  EC50: 14.5 µM
Huh-7 [13]
  Activity: 16%
C6 [14]
  Activity: 63%
Caco-2 [15]
  Activity: 0.5 µM
B16-F10 [16]
  Activity: 73%
MDA-MB-435 [17]
  Activity: 22%
Huh-7 [18]
  Activity: 0.1 µM
C6 [19]
  Activity: Active
Caco-2 [20]
  Activity: 43%
MDA-MB-435 [21]
  EC50: 13.9 µM
C6 [22]
  Activity: Active
C6 [23]
  Activity: 82%
B16-F10 [24]
  EC50: 4.9 µM
Caco-2 [25]
  Activity: 10%
C6 [26]
  EC50: 0.52 µM
SF-295
  growth inhibition (GI): Active
C6 [27]
  Activity: Active
A-431 [28]
  Activity: 32%
Hs-578T
  growth inhibition (GI): Active
DU-145 [29]
  EC50: 65 µM
[30]
  Activity: Non-toxic
DU-145 [31]
  Activity: 40%
C6 [32]
  Activity: Active
DU-145 [33]
  Activity: inactive
DU-145 [34]
  Activity: 5 µM
B16-F10 [35]
  Activity: 25%
C6 [36]
  Activity: Active
MDA-MB-435 [37]
  Activity: 0.001 µM
B16-F10 [38]
  Activity: 0.5 µM
MDA-MB-231 [39]
  Activity: 30%
Huh-7 [40]
  Activity: 22%
A-431 [41]
  Activity: 18%
C6 [42]
  Activity: inactive

## O=[P@@]1(c2ccccc2)O[C@H](COCc2ccccc2)[C@@H](OCc2ccccc2)[C@H](OCc2ccccc2)[C@@H]1O
C6 [1]
  Activity: Active
A-431 [2]
  Activity: 5 µM
UO-31
  inhibition of growth at 10 µM: 50%
MDA-MB-435 [4]
  Activity: 43%
C6 [5]
  Activity: 0.1 µM
MDA-MB-231 [8]
  Activity: 5 µM
Caco-2 [15]
  Activity: 5 µM
B16-F10 [16]
  Activity: inactive
Huh-7 [18]
  Activity: 0.1 µM
NCI-H522
  growth inhibition (GI): Active
SF-268
  growth inhibition (GI): Active
Caco-2 [20]
  Activity: 15%
C6 [22]
  Activity: Active
U-251
  growth inhibition (GI): Active
C6 [23]
  Activity: 31%
SK-OV-3
  growth inhibition (GI): Active
C6 [26]
  EC50: 23.8 µM
HOP-62
  growth inhibition (GI): Active
A-431 [28]
  Activity: 33%
MDA-MB-468
  growth inhibition (GI): Active
DU-145 [31]
  Activity: 14%
LOX IMVI
  inhibition of growth at 10 µM: 45%
DU-145 [34]
  Activity: 1 µM
MDA-MB-435 [37]
  Activity: 0.1 µM
B16-F10 [38]
  Activity: 25 µM
MDA-MB-231 [39]
  Activity: 18%
Huh-7 [40]
  Activity: 55%
